Where a name gives a salt, the structure may show the parent alone.

One data set concerns parent strain (SAWy518).
Conditions: not given
In the case of `CC[n+]1c(/C=C/C=C2/N(C)c3ccccc3C2(C)C)sc2ccccc21.[I-]` [AC-93253 iodide], the Offscreen_18hr was 0.3559, the Offscreen_24hr amounted to 0.5533 and the Offscreen_42hr is 0.821.
With `CO[C@H]1O[C@@H]2O[C@@]3(C)CC[C@H]4[C@H](C)CC[C@@H]([C@H]1C)[C@@]24OO3` [Artemether], the Offscreen_18hr is on record as 0.3535, the Offscreen_24hr is 0.4688 and the Offscreen_42hr came to 0.7035.
As to `O=C1NC(=O)/C(=C\c2cccc(C(F)(F)F)c2)S1` [TCS PIM-1 4a], the Offscreen_18hr came out at 0.5379, the Offscreen_24hr is 0.7077 and the Offscreen_42hr was 0.7912.
The like results for `O=C1Nc2ccccc2/C1=C1/Nc2ccccc2/C1=N\O` [Indirubin-3'-oxime] were, in that order, 0.6559, 0.8248 and 0.9006.
`C=CC[C@@H]1/C=C(\C)C[C@H](C)C[C@H](OC)[C@H]2O[C@@](O)(C(=O)C(=O)N3CCCC[C@H]3C(=O)O[C@H](/C(C)=C/[C@@H]3CC[C@@H](O)[C@H](OC)C3)[C@H](C)[C@@H](O)CC1=O)[C@H](C)C[C@@H]2OC` [TACROLIMUS]: the Offscreen_18hr was found to be 0.727, the Offscreen_24hr came out at 0.8973 and the Offscreen_42hr amounted to 0.9661.
Regarding `O=C(Nc1cc(C(F)(F)F)cc(C(F)(F)F)c1)c1cc(Cl)ccc1O` [IMD 0354], the Offscreen_18hr was 0.1675, the Offscreen_24hr stood at 0.2933 and the Offscreen_42hr is reported as 0.8452.
On to `Cc1cc(C(C)(C)CC(C)(C)C)ccc1OCCOCC[N+](C)(C)Cc1ccccc1.[Cl-]` [METHYLBENZETHONIUM CHLORIDE], for which the Offscreen_18hr came to 0.7745, the Offscreen_24hr worked out at 0.875 and the Offscreen_42hr is reported as 0.932.
The like results for `O=C(/C=C/c1ccc(O)c(O)c1)OCCc1ccccc1` [PHENETHYL CAFFEATE (CAPE)] were, in that order, 0.3307, 0.5133 and 0.8223.
For the compound `Oc1ccc2ccccc2c1SSc1c(O)ccc2ccccc12` [IPA-3], the Offscreen_18hr is listed as 0.0457, the Offscreen_24hr is 0.0481 and the Offscreen_42hr came out at 0.1263.
Turning to `O=c1[nH]c(=O)c2ccccc2o1` [pu-sc-0002 H19], the 18 hours was determined as 0.7281, the 24 hours is 0.8523 and the 48 hours was found to be 0.8964.
For `Nc1ccc(-c2nc3ccc(-c4nc5cc(N)ccc5[nH]4)cc3[nH]2)cc1` [Ro 90-7501], the Offscreen_18hr is 0.6647, the Offscreen_24hr is 0.8739 and the Offscreen_42hr is on record as 0.9612.
The like results for `CC(=O)[C@]1(O)Cc2c(O)c3c(c(O)c2[C@@H](O[C@H]2C[C@H](N)[C@H](O)[C@H](C)O2)C1)C(=O)c1ccccc1C3=O` [Idarubicin] were, in that order, 0.154, 0.1842 and 0.3602.
Consider `NS(=O)(=O)c1ccc(-n2nc(C(F)(F)F)cc2-c2ccc(Cl)cc2)cc1` [SC-236, reference compound], for which the Offtarget entry is recorded as “NO” and the Offtarget_sub came out at 0.2541.
Consider `N#CC[C@@H](C1CCCC1)n1cc(-c2ncnc3[nH]ccc23)cn1` [S-Ruxolitinib (INCB018424)], for which the Offscreen_18hr is recorded as 0.6167, the Offscreen_24hr is 0.8199 and the Offscreen_42hr was determined as 0.9411.
On to `O=C1NC(=O)/C(=C/c2ccc(-c3ccc(F)cc3O)o2)S1` [AS-252424], for which the Offscreen_18hr was determined as 0.6896, the Offscreen_24hr worked out at 0.8289 and the Offscreen_42hr is 0.8951.
In the case of `Oc1c(Cl)cc(Cl)c2cccnc12` [Capitrol], the Offscreen_18hr is 0.0472, the Offscreen_24hr came out at 0.0467 and the Offscreen_42hr amounted to 0.0526.
Take `Oc1ccc(Cl)cc1Cc1cc(Cl)ccc1O` [DICHLOROPHEN]: the Offscreen_18hr came out at 0.5869, the Offscreen_24hr was determined as 0.7921 and the Offscreen_42hr came to 0.8823.
With `CCCc1c(-c2ccc(O)cc2)nn(-c2ccc(O)cc2)c1-c1ccc(O)cc1` [Propylpyrazole triol], the Read_percentage came to 98.9963 percentage.
Regarding `O=c1c2ccccc2[se]n1-c1ccccc1` [EBSELEN], the Offscreen_18hr turned out to be 0.0405, the Offscreen_24hr worked out at 0.0408 and the Offscreen_42hr is 0.0412.
For `CCC(C)n1ncn(-c2ccc(N3CCN(c4ccc(OC[C@H]5CO[C@](Cn6cncn6)(c6ccc(Cl)cc6Cl)O5)cc4)CC3)cc2)c1=O` (stereo partly shown) [Itraconazole (Sporanox)], in that order: 0.7339, 0.8546 and 0.8998.
For `CC(=O)[C@]1(O)Cc2c(O)c3c(c(O)c2[C@@H](O[C@H]2C[C@H](N)[C@H](O)[C@H](C)O2)C1)C(=O)c1ccccc1C3=O` [Idarubicin HCl], the Offscreen_18hr is 0.1605, the Offscreen_24hr is 0.1891 and the Offscreen_42hr is on record as 0.402.
Consider `N#Cc1c(Cl)c(Cl)c(Cl)c(C#N)c1Cl` [CHLOROTHALONIL], for which the Offscreen_18hr is recorded as 0.6512, the Offscreen_24hr worked out at 0.8372 and the Offscreen_42hr was determined as 0.9297.
Regarding `N.S=C(S)N1CCCC1` [Ammonium pyrrolidinedithiocarbamate], the Offscreen_18hr amounted to 0.6686, the Offscreen_24hr was 0.8623 and the Offscreen_42hr is on record as 0.942.
Regarding `N.N.N.N.N.N.N.N.N.N.N.N.N.N.[Cl-].[Cl-].[Cl-].[Cl-].[Cl-].[Cl-].[O-2].[O-2].[Ru+3].[Ru+3].[Ru+4]` [Ruthenium red], the Offscreen_18hr came out at 0.6166, the Offscreen_24hr came out at 0.8198 and the Offscreen_42hr was found to be 0.9382.
Regarding `CCCCCCCCCCCCC[N+](C)(C)Cc1ccccc1.[Cl-]` [BENZALKONIUM CHLORIDE], the Offscreen_18hr came out at 0.0504, the Offscreen_24hr is given as 0.056 and the Offscreen_42hr is on record as 0.5903.
Turning to `CCN(CC)CCOc1ccc(C(=C(Cl)c2ccccc2)c2ccccc2)cc1` [Clomifene citrate], the Offscreen_18hr was 0.6687, the Offscreen_24hr is 0.875 and the Offscreen_42hr amounted to 0.9713.
Regarding `CCN(CC)C(=S)SSC(=S)N(CC)CC` [Disulfiram], the Offscreen_18hr came to 0.0526, the Offscreen_24hr is on record as 0.0614 and the Offscreen_42hr is 0.7775.
Consider `CC(C)NNC(=O)c1ccncc1.O=P(O)(O)O` [Iproniazid phosphate, reference compound], for which the Offtarget entry is on record as “NO” and the Offtarget_sub worked out at 0.4143.
As for `O=[N+]([O-])c1ccc(O)c2ncccc12` [NITROXOLINE], the Offscreen_18hr amounted to 0.0416, the Offscreen_24hr is 0.0414 and the Offscreen_42hr is on record as 0.0729.
Consider `O=C(O)Cc1ccc(-c2ccccc2)cc1` [FELBINAC], for which the Offscreen_18hr is listed as 0.6742, the Offscreen_24hr came to 0.7657 and the Offscreen_42hr turned out to be 0.7971.
For `Cc1ccc(S(=O)(=O)/C=C/C#N)cc1` [Bay 11-7082], in that order: 0.1157, 0.2743 and 0.896.
For `COc1ncc(-c2ccc3nccc(-c4ccnnc4)c3c2)cc1NS(=O)(=O)c1ccc(F)cc1F` [GSK2126458 (GSK458)], in that order: 0.433, 0.6688 and 0.9364.
With `CN(C)c1ccc2nc3ccc(=[N+](C)C)cc-3sc2c1.O.O.O.[Cl-]` [Methylene Blue], the Offscreen_18hr is 0.8664, the Offscreen_24hr is listed as 0.9565 and the Offscreen_42hr is listed as 1.0182.
For `CCCCc1oc2ccccc2c1C(=O)c1cc(I)c(OCCN(CC)CC)c(I)c1` [Amiodarone hydrochloride], in that order: 0.3754, 0.6492 and 0.9258.
`NCC(=O)Nc1ccc(-n2nc(C(F)(F)F)cc2-c2ccc3c(ccc4ccccc43)c2)cc1` [OSU-03012 (AR-12)]: the Offscreen_18hr is listed as 0.0821, the Offscreen_24hr stood at 0.1608 and the Offscreen_42hr was 0.9195.
Regarding `C[C@@H]1CC[C@H]2[C@@H](C)C(=O)O[C@@H]3O[C@@]4(C)CC[C@@H]1[C@]32OO4` [ARTEMISININ], the Offscreen_18hr is recorded as 0.4969, the Offscreen_24hr came to 0.7016 and the Offscreen_42hr is listed as 0.8396.
Take `CC(Cc1ccc(O)c(O)c1)C(C)Cc1ccc(O)c(O)c1` (stereo not shown) [Nordihydroguaiaretic acid, reference compound]: the OffScreen_percentage amounted to 101.227 percentage, the Offscreen_18hr came to 0.8169, the Offscreen_24hr is 0.9084 and the Offscreen_42hr came out at 0.9699. In addition, the Read_percentage was 101.227 percentage.
Take OXYCLOZANIDE: the Offscreen_18hr stood at 0.5071, the Offscreen_24hr was 0.6783 and the Offscreen_42hr is on record as 0.7815.
Turning to `COc1cccc2c1C(=O)c1c(O)c3c(c(O)c1C2=O)C[C@@](O)(C(=O)CO)C[C@H]3O[C@H]1C[C@H](N)[C@H](O)[C@H](C)O1.Cl` [Doxorubicin (Adriamycin)], the Offscreen_18hr is listed as 0.4346, the Offscreen_24hr came to 0.6005 and the Offscreen_42hr amounted to 0.8771.
Turning to `CCN(CC)C(=S)SSC(=S)N(CC)CC` [Tetraethylthiuram disulfide], the Offscreen_18hr amounted to 0.0416, the Offscreen_24hr is listed as 0.0418 and the Offscreen_42hr came to 0.0415.

Still in this data set, the particulars now being: parent strain growth reading, 18 hr.
With `CN(C)c1ccc2nc3ccc(=[N+](C)C)cc-3sc2c1` [Methylene Blue trihydrate], the Offscreen_18hr was found to be 0.8664.
Regarding JAK3 Inhibitor VI, the Offscreen_18hr is 0.0531.

Staying with this data set, now noted: parent strain growth reading, 24 hr.
Turning to `CN(C)c1ccc2nc3ccc(=[N+](C)C)cc-3sc2c1` [Methylene Blue trihydrate], the Offscreen_24hr came out at 0.9565.
As to JAK3 Inhibitor VI, the Offscreen_24hr is given as 0.0592.

The same data set, now with this note: parent strain growth reading, 42 hr.
Take `CN(C)c1ccc2nc3ccc(=[N+](C)C)cc-3sc2c1` [Methylene Blue trihydrate]: the Offscreen_42hr came to 1.0182.
Turning to JAK3 Inhibitor VI, the Offscreen_42hr was 0.0892.
